Measured values: patent US11142531B2, “Cyano substituted heteroarylpyrimidinone derivative, preparation method and use thereof” (ZHEJIANG HISUN PHARMACEUTICAL CO., LTD., priority 2017, dated 2021)

Assays:
[1] = molecular target: recombinant human ACC1 (Homo sapiens (Human), UniProt Q13085); experiment: Inhibition of enzymatic activity of ACC1 (ADP-Glo chemiluminescence); format: biochemical; details: recombinant human ACC1 protein 2 nM, ATP 20 μM, acetyl-CoA 10 μM, NaHCO3 30 mM
Method: (§1) The degree of inhibition of the enzymatic activity of recombinant human ACC1, ACC2 proteins under in-vitro conditions by the preferred compounds of the present disclosure is determined by the following method.
The principle of the method was based on the reaction of ACC protein-catalyzed acetyl-CoA to form malonyl-CoA. ATP was consumed during this reaction and ADP was produced. The produced ADP was reconverted into ATP by using ADP-Glo™ Kinase Kit from Promega. This part of ATP reacted with the luciferase-fluorescence in the kit, and generated chemiluminescent signals. Thus, by measuring the intensity of chemiluminescent signal, the amount of ADP produced in the catalytic reaction was reflected, thereby indirectly determining the enzymatic activity of ACC protein and the effect of the tested compound on the enzymatic activity. The main reagents used included ACC1, ACC2 proteins (purchased from BPS bioscience, ACC1 Art. No. 50200, ACC2 Art. No. 50201), acetyl-CoA (acetyl-CoA, purchased from Sigma, Art. No. A2056), NaHCO3 (purchased from Sigma, Art. No. S6014), ADP-Glo™ Kinase assay kit (purchased from Promega, Art. No. V9102).
The test procedure was briefly described as follows: firstly, a 1× buffer solution required for the reaction was prepared, comprising: 50 mM HEPES (pH7.4 purchased from Invitrogen, Art. No. 15630), 2 mM magnesium chloride (MgCl2, purchased from Sigma, Art. No. M1028), 2 mM potassium citrate (Potassium citrate, purchased from Sigma, Art. No. 89306), 0.01% Brij-35 detergent (purchased from Merck, Art. No. 203728), 2 mM DTT (purchased from Sigma, Art. No. D0632). The test compound powder was dissolved in DMSO to prepare a stock solution having a concentration of 10 mM, followed by three-fold dilution to prepare the concentration required for the test, and each compound was set at 10 concentration points ranging from 10 μm to 0.5 nM. Firstly, appropriate amount of ACC protein (2 nM) was added to a 384-well microplate, and then diluted test compound solutions were added to each well. A duplicate well was provided at each concentration, and a solution control group (blank group) and a negative control group (DMSO group) were set at the same time. The 384-well plates were then shaken on a microwell plate oscillator and incubated for 15 minutes at room temperature. Thereafter, a substrate mixture containing ATP, acetyl-CoA and NaHCO3 which was diluted with the aforementioned buffer solution was added to each well to start the reaction, and the final concentrations of the three components were respectively ATP 20 μM, acetyl-CoA 10 μM, and NaHCO3 30 mM. After reacting for 30 minutes at room temperature, the corresponding reaction solution and detection solution were added to each well according to the method in the specification of ADP-Glo™ Kinase assay kit (referring to the specification of the kit for specific methods). Finally, the relative light unit (RLU) values of each well were tested using an Envision 2104 multi-function microplate reader (Perkin Elmer). The percentage inhibition rate of a compound at a concentration on ACC enzyme activity was calculated by the following formula: Inhibition rate %=[(RLU average value of negative control wells−RLU average value of blank control wells)−(RLU average values of test wells−RLU average values of blank control wells)]/(RLU average values of negative control wells−RLU average values of blank control wells)*100
Finally, nonlinear regression analysis of the logarithm of the concentration of the compound and the percentage inhibition rate of the corresponding concentration was carried out in the GraphPad Prism5 software to obtain the half maximal inhibitory concentration (IC50) of the compound.

[2] = molecular target: recombinant human ACC2 (Homo sapiens (Human), UniProt O00763); experiment: Inhibition of enzymatic activity of ACC2 (ADP-Glo chemiluminescence); format: biochemical; details: recombinant human ACC2 protein 2 nM, ATP 20 μM, acetyl-CoA 10 μM, NaHCO3 30 mM
Chain of recombinant human ACC2 (O00763 whole entry): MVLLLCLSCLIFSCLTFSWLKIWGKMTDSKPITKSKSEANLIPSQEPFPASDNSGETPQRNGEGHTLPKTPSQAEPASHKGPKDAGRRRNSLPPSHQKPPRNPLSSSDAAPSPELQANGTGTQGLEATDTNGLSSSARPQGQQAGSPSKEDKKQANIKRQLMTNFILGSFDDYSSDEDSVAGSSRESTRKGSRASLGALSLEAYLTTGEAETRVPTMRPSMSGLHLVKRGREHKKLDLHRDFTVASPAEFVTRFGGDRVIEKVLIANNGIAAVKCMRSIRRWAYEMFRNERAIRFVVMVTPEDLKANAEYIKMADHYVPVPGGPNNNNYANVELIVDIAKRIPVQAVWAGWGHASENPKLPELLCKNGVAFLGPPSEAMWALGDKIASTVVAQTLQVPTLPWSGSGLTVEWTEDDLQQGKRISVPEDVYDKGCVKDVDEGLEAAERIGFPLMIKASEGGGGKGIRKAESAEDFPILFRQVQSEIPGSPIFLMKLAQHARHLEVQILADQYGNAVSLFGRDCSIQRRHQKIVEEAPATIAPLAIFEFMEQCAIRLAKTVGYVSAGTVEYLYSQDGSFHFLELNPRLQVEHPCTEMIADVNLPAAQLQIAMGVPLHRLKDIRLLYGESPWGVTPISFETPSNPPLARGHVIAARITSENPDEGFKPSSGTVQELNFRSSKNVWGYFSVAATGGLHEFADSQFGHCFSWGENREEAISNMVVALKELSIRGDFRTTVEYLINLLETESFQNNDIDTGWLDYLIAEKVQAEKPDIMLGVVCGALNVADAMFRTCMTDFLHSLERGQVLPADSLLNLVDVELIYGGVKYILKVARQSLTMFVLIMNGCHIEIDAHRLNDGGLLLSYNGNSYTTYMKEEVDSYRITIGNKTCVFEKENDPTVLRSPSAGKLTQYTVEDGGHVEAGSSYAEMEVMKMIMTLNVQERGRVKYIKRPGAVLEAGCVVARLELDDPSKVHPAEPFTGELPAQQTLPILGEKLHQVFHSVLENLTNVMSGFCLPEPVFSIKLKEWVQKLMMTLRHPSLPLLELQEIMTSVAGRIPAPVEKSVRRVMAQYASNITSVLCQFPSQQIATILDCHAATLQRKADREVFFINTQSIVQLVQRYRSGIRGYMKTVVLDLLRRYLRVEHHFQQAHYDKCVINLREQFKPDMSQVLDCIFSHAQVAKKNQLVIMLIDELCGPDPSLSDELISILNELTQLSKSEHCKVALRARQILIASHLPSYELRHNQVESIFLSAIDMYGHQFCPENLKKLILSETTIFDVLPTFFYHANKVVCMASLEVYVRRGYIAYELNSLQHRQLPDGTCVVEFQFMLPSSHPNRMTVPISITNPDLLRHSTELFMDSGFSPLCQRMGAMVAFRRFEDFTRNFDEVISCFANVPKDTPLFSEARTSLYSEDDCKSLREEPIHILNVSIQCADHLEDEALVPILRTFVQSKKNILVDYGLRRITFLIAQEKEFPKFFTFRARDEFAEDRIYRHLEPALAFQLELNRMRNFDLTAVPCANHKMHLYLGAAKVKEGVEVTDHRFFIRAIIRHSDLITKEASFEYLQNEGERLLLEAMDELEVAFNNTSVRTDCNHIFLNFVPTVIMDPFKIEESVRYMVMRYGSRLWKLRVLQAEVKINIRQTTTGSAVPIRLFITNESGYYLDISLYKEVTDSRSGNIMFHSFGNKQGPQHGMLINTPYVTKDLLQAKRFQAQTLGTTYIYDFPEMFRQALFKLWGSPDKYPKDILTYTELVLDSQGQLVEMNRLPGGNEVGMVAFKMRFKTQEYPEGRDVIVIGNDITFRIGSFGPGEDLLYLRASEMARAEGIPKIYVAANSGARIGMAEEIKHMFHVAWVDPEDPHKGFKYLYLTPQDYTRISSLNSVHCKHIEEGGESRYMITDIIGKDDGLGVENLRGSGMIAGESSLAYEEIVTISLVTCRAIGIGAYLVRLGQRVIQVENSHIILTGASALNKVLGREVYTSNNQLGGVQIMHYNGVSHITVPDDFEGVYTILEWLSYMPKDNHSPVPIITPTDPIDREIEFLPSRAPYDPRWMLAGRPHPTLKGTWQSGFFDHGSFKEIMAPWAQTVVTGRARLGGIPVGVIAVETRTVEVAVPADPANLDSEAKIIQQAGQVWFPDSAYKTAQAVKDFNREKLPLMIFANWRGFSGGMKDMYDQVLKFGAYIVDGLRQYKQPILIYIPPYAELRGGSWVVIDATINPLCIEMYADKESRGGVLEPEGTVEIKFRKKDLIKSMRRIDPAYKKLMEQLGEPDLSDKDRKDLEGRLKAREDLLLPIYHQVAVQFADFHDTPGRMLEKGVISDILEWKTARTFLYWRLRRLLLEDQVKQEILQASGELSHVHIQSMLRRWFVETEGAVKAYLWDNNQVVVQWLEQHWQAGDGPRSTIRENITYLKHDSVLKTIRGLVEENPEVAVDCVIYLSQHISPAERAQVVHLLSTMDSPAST
Method: as §1
The principle of the method was based on the reaction of ACC protein-catalyzed acetyl-CoA to form malonyl-CoA. ATP was consumed during this reaction and ADP was produced. The produced ADP was reconverted into ATP by using ADP-Glo™ Kinase Kit from Promega. This part of ATP reacted with the luciferase-fluorescence in the kit, and generated chemiluminescent signals. […]
The test procedure was briefly described as follows: firstly, a 1× buffer solution required for the reaction was prepared, comprising: 50 mM HEPES (pH7.4 purchased from Invitrogen, Art. No. 15630), 2 mM magnesium chloride (MgCl2, purchased from Sigma, Art. No. M1028), 2 mM potassium citrate (Potassium citrate, purchased from Sigma, Art. No. 89306), 0.01% Brij-35 detergent (purchased from Merck, Art. No. 203728), 2 mM DTT (purchased from Sigma, Art. No. D0632). […] Finally, the relative light unit (RLU) values of each well were tested using an Envision 2104 multi-function microplate reader (Perkin Elmer). […]

[3] = Oral pharmacokinetic research in SD rats (plasma and liver, LC/MS/MS); format: in vivo; details: male, Sprague-Dawley (SD), rat, intragastric, 10 mg/kg
Method: SD rat was used as the experimental animal. The drug concentrations in plasma and liver at different times were tested after the rats were intragastrically administered with the compound of Example 19 by LC/MS/MS methods, so as to research the pharmacokinetic characteristics of compound of present disclosure in rats.
An appropriate amount of experimental drug was weighed, and 0.5% sodium carboxymethylcellulose (CMC-Na) was added, and the mixture was milled to prepare a 1 mg/mL suspension;
6 healthy adult male rats were divided into 2 groups, fasted overnight and respectively intragastrically administered with the drug at a dosage of 10 mg/kg, at a volume of 10 mL/kg. The rats were feed 2 h after the administration.
Blood was collected by jugular vein puncture, and about 0.25 mL was collected for each sample, which was anticoagulated by using heparin sodium, and the samples were placed on ice after collection. The time points of blood collection were as follows:
The first group of animals: blood collection time: before administration, and 0.083 h, 0.25 h, 0.5 h, 1 h, 2 h, 4 h, 6 h, 8 h and 24 h after administration.
The second group of animals: the animals were euthanized 0.5 h after administration, and the liver tissues were collected, 3 rats/time point.
Blood samples were collected and placed on ice, and plasma was separated by centrifugation (centrifugation conditions: 8000 rpm, 6 min, 2-8° C.). The collected plasma was stored at −80° C. before analysis.
The content of the test compound in the plasma and liver of the rats after intragastrically administration was analyzed by LC-MS/MS.

Row | IC50 [1] | SMILES | also measured
1 | 16.5 nM | COc1ccc(F)cc1C(Cn1c(=O)n(C(C)(C)C(=O)O)c(=O)c2c(C)c(C#N)sc21)OC1CCOCC1 (stereo not shown) [Example 4, 2-(6-Cyano-1-(2-(5-fluoro-2-methoxyphenyl)-2-((tetrahydro-2H-pyran-4-yl)oxy)ethyl)-5-methyl-2,4-dioxo-1,2-dihydrothiopheno[2,3-d]pyrimidin-3(4H)-yl)-2-methylpropionic acid] | –
2 | 15 nM | COc1ccc(F)cc1[C@H](Cn1c(=O)n(C(C)(C)C(=O)O)c(=O)c2c(C)c(C#N)sc21)OC1CCOCC1 [Example 11, (R)-2-(6-Cyano-1-(2-(5-fluoro-2-methoxyphenyl)-2-((tetrahydro-2H-pyran-4-yl)oxy)ethyl)-5-methyl-2,4-dioxo-1,2-dihydrothiopheno[2,3-d]pyrimidin-3(4H)-yl)-2-methylpropionic acid] | –
3 | 7.9 nM | Cc1c(C#N)sc2c1c(=O)n(C(C)(C)C(=O)O)c(=O)n2CC(OC1CCOCC1)c1cc(F)ccc1OCCF (stereo not shown) [Example 14, 2-(6-Cyano-1-(2-(5-fluoro-2-(2-fluoroethoxy)phenyl)-2-((tetrahydro-2H-pyran-4-yl)oxy)ethyl)-5-methyl-2,4-dioxo-1,2-dihydrothiopheno[2,3-d]pyrimidin-3(4H)-yl)-2-methylpropionic acid] | –
4 | 4.4 nM | CCOc1ccc(F)cc1C(Cn1c(=O)n(C(C)(C)C(=O)O)c(=O)c2c(C)c(C#N)sc21)OC1CCOCC1 (stereo not shown) [Example 15, 2-(6-Cyano-1-(2-(2-ethoxy-5-fluorophenyl)-2-((tetrahydro-2H-pyran-4-yl)oxy)ethyl)-5-methyl-2,4-dioxo-1,2-dihydrothiopheno[2,3-d]pyrimidin-3(4H)-yl)-2-methylpropionic acid] | –
5 | 20.7 nM | Cc1c(C#N)sc2c1c(=O)n(C(C)(C)C(=O)O)c(=O)n2CC(OC1CCOCC1)c1cc(F)ccc1OCC#N (stereo not shown) [Example 17, 2-(6-Cyano-1-(2-(2-(cyanomethoxy)-5-fluorophenyl)-2-((tetrahydro-2H-pyran-4-yl)oxy)ethyl)-5-methyl-2,4-dioxo-1,2-dihydrothiopheno[2,3-d]pyrimidin-3(4H)-yl)-2-methylpropionic acid] | –
6 | 2.7 nM | CCOc1ccc(F)cc1[C@H](Cn1c(=O)n(C(C)(C)C(=O)O)c(=O)c2c(C)c(C#N)sc21)OC1CCOCC1 [Example 19, (R)-2-(6-cyano-1-(2-(2-ethoxy-5-fluorophenyl)-2-((tetrahydro-2H-pyran-4-yl)oxy)ethyl)-5-methyl-2,4-dioxo-1,2-dihydrothiopheno[2,3-d]pyrimidin-3(4H)-yl)-2-methylpropionic acid] | IC50 [2]: 6 nM; concentration at 0.5 h ([3]; oral, liver, 0.5 h after administration, read-out: drug concentration in the liver): 46800 ± 14000 ng/mL; Cmax ([3]; po, plasma, read-out: Blood concentration Cmax): 920 ± 362 ng/mL; AUC(0-inf) ([3]; po, plasma, read-out: Curve area AUC0-∞): 1940 ± 1190 ng·h/mL; half-life ([3]; po, plasma, read-out: Half-life period T½ (converted)): 3.39 ± 0.65 h; MRT ([3]; po, plasma, read-out: Residence time MRT): 2.82 ± 0.34 h
7 | 6.4 nM | Cc1c(C#N)sc2c1c(=O)n(C(C)(C)C(=O)O)c(=O)n2C[C@H](OC1CCOCC1)c1cc(F)ccc1OCCF [Example 21, (R)-2-(6-cyano-1-(2-(5-fluoro-2-(2-fluoroethoxy)phenyl)-2-((tetrahydro-2H-pyran-4-yl)oxy)ethyl)-5-methyl-2,4-dioxo-1,2-dihydrothiopheno[2,3-d]pyrimidin-3(4H)-yl)-2-methylpropionic acid] | IC50 [2]: 22 nM

The remaining lines, values behind:

Row | SMILES | IC50 [1] | also measured
8 | COc1ccccc1C(Cn1c(=O)n(C(C)(C)C(=O)O)c(=O)c2c(C)c(C#N)sc21)OC1CCOCC1 (stereo not shown) [Example 1, 2-(6-Cyano-1-(2-(2-methoxyphenyl)-2-((tetrahydro-2H-pyran-4-yl)oxy)ethyl)-5-methyl-2,4-dioxo-1,2-dihydrothiopheno[2,3-d]pyrimidin-3(4H)-yl)-2-methylpropionic acid] | 38 nM | –
9 | COc1ccccc1[C@@H](Cn1c(=O)n(C(C)(C)C(=O)O)c(=O)c2c(C)c(C#N)sc21)OC1CCOCC1 [Example 2, (S)-2-(6-Cyano-1-(2-(2-methoxyphenyl)-2-((tetrahydro-2H-pyran-4-yl)oxy)ethyl)-5-methyl-2,4-dioxo-1,2-dihydrothiopheno[2,3-d]pyrimidin-3(4H)-yl)-2-methylpropionic acid] | 16 nM | –
10 | COc1ccccc1[C@H](Cn1c(=O)n(C(C)(C)C(=O)O)c(=O)c2c(C)c(C#N)sc21)OC1CCOCC1 [Example 3, (R)-2-(6-cyano-1-(2-(2-methoxyphenyl)-2-((tetrahydro-2H-pyran-4-yl)oxy)ethyl)-5-methyl-2,4-dioxo-1,2-dihydrothiopheno[2,3-d]pyrimidin-3(4H)-yl)-2-methylpropionic acid] | 11.6 nM | –
11 | CCOc1ccccc1C(Cn1c(=O)n(C(C)(C)C(=O)O)c(=O)c2c(C)c(C#N)sc21)OC1CCOCC1 (stereo not shown) [Example 6, 2-(6-Cyano-1-(2-(2-ethoxyphenyl)-2-((tetrahydro-2H-pyran-4-yl)oxy)ethyl)-5-methyl-2,4-dioxo-1,2-dihydrothiopheno[2,3-d]pyrimidin-3(4H)-yl)-2-methylpropionic acid] | 21 nM | –
12 | Cc1c(C#N)sc2c1c(=O)n(C(C)(C)C(=O)O)c(=O)n2CC(OC1CCOCC1)c1ccccc1OCC1CC1 (stereo not shown) [Example 13, 2-(6-Cyano-1-(2-(2-(cyclopropylmethoxy)phenyl)-2-((tetrahydro-2H-pyran-4-yl)oxy)ethyl)-5-methyl-2,4-dioxo-1,2-dihydrothiopheno[2,3-d]pyrimidin-3(4H)-yl)-2-methylpropionic acid] | 36 nM | –
